Patent publication US10086085B2, “Bifunctional cytotoxic agents” (priority 2014, dated 2018)
Like-named read-outs stand apart in the source and are kept apart here.

Key:
HL60 (leukemia) = assay: Cytotoxicity assay for payloads (MTS), HL-60 cells; format: cell-based; conditions: incubated with compounds for four days, MTS absorbance 490 nm
Protocol: (§1) Cancer cell lines were obtained from ATCC (Manassas, Va.). N87 (human gastric carcinoma derived from metastatic liver site). HL60 (leukemia), A375 (melanoma) and HUVEC (human umbilical vein endothelial cells). were grown in RPMI 1640 media. All media were supplemented with 10% fetal bovine serum, 1% sodium pyruvate, and 1% L-glutamine (Invitrogen, Grand Island, N.Y.). Human umbilical vein endothelial cells (HUVEC) were obtained from Lonza (Allendale, N.J.) and maintained in EGM2 media supplemented with EGM-2 SingleQuots (Lonza # CC-4176). All cells were maintained in a humidified incubator (37° C., 5% CO2).
(§2) Cells in 100 μl medium were cultured in a 96-well plate. Cancer cell lines treated with the indicated compounds by adding 50 μl of 3× stocks in duplicate at 10 concentrations. Cells were incubated with compounds for four days, then 30 μl of CellTiter® 96 AQueous One MTS Solution (Promega Cat # G3582) was added to the cells, incubated 1.5 hr at 37° C., then absorbance measured at 490 nm on a Victor plate reader (Perkin Elmer, Waltham, Mass.). Relative cell viability was determined as a percentage of untreated control wells. IC50 values were calculated using four parameter logistic model #203 with XLfit v4.2 (IDBS, Guildford, Surry, UK).

[1] = system: N87 (human gastric carcinoma derived from metastatic liver site); assay: Cytotoxicity assay for payloads (MTS), N87 cells; format: cell-based; conditions: N87 cells, incubated with compounds for four days, MTS absorbance 490 nm, read-out: N87 IC50
Protocol: as §1, §2

SMILES	IC50 (HL60 (leukemia); Homo sapiens, 96 h) [pM]	IC50 ([1]; Homo sapiens, 96 h) [pM]	IC50 (HL60 (leukemia)) [pM]	IC50 [1] [pM]
CC(=O)Oc1cc2c(c3ccccc13)[C@H](CCl)CN2C(=O)Cc1cc(CC(=O)N2C[C@@H](CCl)c3c2cc(OC(C)=O)c2ccccc32)cc([N+](=O)[O-])c1 [Compound 178, (5-nitrobenzene-1,3-diyl)bis[(1-oxoethane-2,1-diyl)(1S)-1-(chloromethyl)-1,2-dihydro-3H-benzo[e]indole-3,5-diyl] diacetate]	36	484	–	–
Cc1c[nH]c2c(O)cc3c(c12)[C@H](CCl)CN3C(=O)C12CC(C(=O)N3C[C@@H](CCl)c4c3cc(O)c3ccccc43)(C1)C2 [Compound 154, [(1S)-1-(chloromethyl)-5-hydroxy-1,2-dihydro-3H-benzo[e]indol-3-yl](3-{[(1S)-1-(chloromethyl)-5-hydroxy-8-methyl-1,6-dihydropyrrolo[3,2-e]indol-3(2H)-yl]carbonyl}bicyclo[1.1.1]pent-1-yl)methanone]	3	26	–	–
CC(=O)Oc1cc2c(c3ccccc13)[C@H](CCl)CN2C(=O)C12CCC(C(=O)N3C[C@@H](CCl)c4c3cc(OC(C)=O)c3ccccc43)(CC1)N2 [Compound 79, 7-azabicyclo[2.2.1]heptane-1,4-diylbis[carbonyl(1S)-1-(chloromethyl)-1,2-dihydro-3H-benzo[e]indole-3,5-diyl]diacetate]	–	–	496	7960
CC(=O)Oc1cc2c(c3ccccc13)[C@H](CCl)CN2C(=O)c1nnc(C(=O)N2C[C@@H](CCl)c3c2cc(OC(C)=O)c2ccccc32)s1 [Compound 144, 1,3,4-thiadiazole-2,5-diylbis[carbonyl(1S)-1-(chloromethyl)-1,2-dihydro-3H-benzo[e]indole-3,5-diyl] diacetate]	3000	> 10000	–	–
CC(=O)Oc1cc2c(c3ccccc13)[C@H](CCl)CN2C(=O)c1cc(C(=O)N2C[C@@H](CCl)c3c2cc(OC(C)=O)c2ccccc32)n(C)n1 [Compound 74, acetic acid (S)-3-[5-((S)-5-acetoxy-1-chloromethyl-1,2-dihydro-benzo[e]indole-3-carbonyl)-1-methyl-1H-pyrazole-3-carbonyl]-1-chloromethyl-2,3-dihydro-1H-benzo[e]indol-5-yl ester]	7490	76500	–	–
Cc1c[nH]c2c(O)cc3c(c12)[C@H](CCl)CN3C(=O)CNCC(=O)N1C[C@@H](CCl)c2c1cc(O)c1[nH]cc(C)c21 [Compound 165, 2,2′-iminobis{1-[(1S)-1-(chloromethyl)-5-hydroxy-8-methyl-1,6-dihydropyrrolo[3,2-e]indol-3(2H)-yl]ethanone}]	107	8260	–	–
CC(=O)Nc1ccc2c(OC(C)=O)cc3c(c2c1)[C@@H](CCl)CN3C(=O)C12CC(C(=O)N3C[C@@H](CCl)c4c3cc(OC(C)=O)c3ccccc43)(C1)C2 [Compound 108, (1R)-8-(acetylamino)-3-[(3-{[(1S)-5-(acetyloxy)-1-(chloromethyl)-1,2-dihydro-3H-benzo[e]indol-3-yl]carbonyl}bicyclo[1.1.1]pent-1-yl)carbonyl]-1-(chloromethyl)-1,2-dihydro-3H-benzo[e]indol-5-yl acetate]	431	3980	–	–
CC(=O)Oc1cc2c(c3ccccc13)[C@H](CCl)CN2C(=O)CC1(CC(=O)N2C[C@@H](CCl)c3c2cc(OC(C)=O)c2ccccc32)CCC1 [Compound 156, cyclobutane-1,1-diylbis[(1-oxoethane-2,1-diyl)(1S)-1-(chloromethyl)-1,2-dihydro-3H-benzo[e]indole-3,5-diyl] diacetate]	61100	≥ 10000	–	–
CC(=O)Oc1cc2c(c3ccccc13)[C@H](CCl)CN2C(=O)Cc1cccc(CC(=O)N2C[C@@H](CCl)c3c2cc(OC(C)=O)c2ccccc32)c1 [Compound 177, benzene-1,3-diylbis[(1-oxoethane-2,1-diyl)(1S)-1-(chloromethyl)-1,2-dihydro-3H-benzo[e]indole-3,5-diyl] diacetate]	196	2120	–	–
O=C(CCNC(=O)N1C[C@@H](CCl)c2c1cc(O)c1ccccc21)N1C[C@@H](CCl)c2c1cc(O)c1ccccc21 [Compound 65, (S)-1-Chloromethyl-5-hydroxy-1,2-dihydro-benzo[e]indole-3-carboxylic acid [3-((S)-1-chloromethyl-5-hydroxy-1,2-dihydro-benzo[e]indol-3-yl)-3-oxo-propyl]-amide]	4	554	–	–
O=C(c1ccc(C(=O)N2C[C@@H](CCl)c3c2cc(OP(=O)(O)O)c2ccccc32)s1)N1C[C@@H](CCl)c2c1cc(O)c1ccccc21 [Compound 171, (1S)-1-(chloromethyl)-3-[(5-{[(1S)-1-(chloromethyl)-5-hydroxy-1,2-dihydro-3H-benzo[e]indol-3-yl]carbonyl}thiophen-2-yl)carbonyl]-2,3-dihydro-1H-benzo[e]indol-5-yl dihydrogen phosphate]	131	1550	–	–
NC(CC(=O)N1C[C@@H](CCl)c2c1cc(O)c1ccccc21)CC(=O)N1C[C@@H](CCl)c2c1cc(O)c1ccccc21 [Compound 40, 3-Amino-1,5-bis-((S)-1-chloromethyl-5-hydroxy-1,2-dihydro-enzo[e]indol-3-yl)-pentane-1,5-dione]	177	1880	–	–
Cc1c[nH]c2c(O)cc3c(c12)[C@H](CCl)CN3C(=O)C12CC(C(=O)N3C[C@@H](CCl)c4c3cc(O)c3[nH]cc(C)c43)(C1)C2 [Compound 147, bicyclo[1.1.1]pentane-1,3-diylbis{[(1S)-1-(chloromethyl)-5-hydroxy-8-methyl-1,6-dihydropyrrolo[3,2-e]indol-3(2H)-yl]methanone}]	3	17	–	–
O=C(c1ccc(C(=O)N2C[C@@H](CCl)c3c2cc(O)c2ccccc32)[nH]1)N1C[C@@H](CCl)c2c1cc(O)c1ccccc21 [Compound 32, (S)-(1H-pyrrole-2,5-diyl)bis(((S)-1-(chloromethyl)-5-hydroxy-1H-benzo[e]indol-3(2H)-yl)methanone)]	5	52	–	–
N[C@@H](CCC(=O)N1C[C@H]2C[C@@]23C1=CC(=O)c1ccccc13)C(=O)N1C[C@H]2C[C@@]23C1=CC(=O)c1ccccc13 [Compound 167, (2S)-2-amino-1,5-bis[(1aS,9bR)-5-oxo-1a,2-dihydro-1H-benzo[e]cyclopropa[c]indol-3(5H)-yl]pentane-1,5-dione]	1450	≥ 10000	–	–
O=C(c1ccc(C(=O)N2C[C@@H](CCl)c3c2cc(O)c2ccccc32)o1)N1C[C@@H](CCl)c2c1cc(O)c1ccccc21 [Compound 13, (S)-furan-2,5-diylbis(((S)-1-(chloromethyl)-5-hydroxy-1H-benzo[e]indol-3(2H)-yl)methanone)]	14	138	–	–
O=C([C@@H]1CCC[C@H](C(=O)N2C[C@@H](CCl)c3c2cc(O)c2ccccc32)C1)N1C[C@@H](CCl)c2c1cc(O)c1ccccc21 [Compound 16, (S)-((1R,3S)-cyclohexane-1,3-diyl)bis(((S)-1-(chloromethyl)-5-hydroxy-1H-benzo[e]indol-3(2H)-yl)methanone)]	163	1760	–	–
Nc1ccc(CCC(=O)N(CC(=O)N2C[C@@H](CCl)c3c2cc(O)c2ccccc32)CC(=O)N2C[C@@H](CCl)c3c2cc(O)c2ccccc32)cc1 [Compound 56, 3-(4-Amino-phenyl)-N,N-bis-[2-((S)-1-chloromethyl-5-hydroxy-1,2-dihydro-benzo[e]indol-3-yl)-2-oxo-ethyl]-propionamide]	6930	≥ 100000	–	–
